Measurements: US10603701B2, “Bioremediation of 1,4-dioxane and chlorinated aliphatic hydrocarbons by propanotrophic bacteria” (New Jersey Institute of Technology, priority 2018, dated 2020)

Tests used:
Azoarcus sp. DD4 [1] = experiment: Biodegradation of concurrent dioxane and 1,1-DCE by DD4 in microcosms; type: cell-based; conditions: for effect of presence on utilization of 1-propanol and proliferation of DD4: 1-propanol as primary substrate
Description: Biodegradation of concurrent dioxane and 1,1-DCE by Azoarcus sp. DD4. To evaluate the performance of DD4 in removing dioxane and 1,1-DCE when both compounds are concurrently present, microcosms were prepared with DD4 inoculum in NMS medium and dosed with dioxane and 1,1-DCE. Two primary substrates were used, including propane and 1-propanol.

Azoarcus sp. DD4 [2] = experiment: Inhibition of 1,1-DCE on dioxane degradation by DD4 resting cells; type: cell-based; conditions: dioxane 20.9±0.3 mg/L and 1,1-DCE 5.0±0.4 mg/L, 24 hr
Description: Inhibition of 1,1-DCE on dioxane degradation by Azoarcus sp. DD4. Though DD4 can degrade both dioxane and 1,1-DCE, the effect(s) of 1,1-DCE on dioxane biodegradation was investigated. DD4 cells were harvested at the exponential growth phase and washed by NMS medium three times. Three treatments were prepared with the resting cells by the exposure of dioxane (19.7±1.2 mg/L), 1,1-DCE (5.5±0.1 mg/L), and both dioxane (20.9±0.3 mg/L) and 1,1-DCE (5.0±0.4 mg/L). Concentrations of 1,1-DCE and dioxane were monitored using GC at selected time intervals over 24 hr. Abiotic controls were treated identically. All experiments were performed in duplicate vials. […] Thus, it is very plausible that DD4 can resume its capability of degrading dioxane once 1,1-DCE is depleted by DD4.

Mycobacterium sp. DT1 = experiment: Concurrent biodegradation of dioxane and TCE by DT1 in simulated microcosms; type: cell-based
Description: Concurrent biodegradation of dioxane and TCE by Mycobacterium sp. DT1. To evaluate the performance of DT1 in the removal of dioxane and TCE when both compounds are concurrently present, simulated microcosms were prepared with DT1 inoculum in BSM medium and dosed with dioxane and TCE. Propane was used as the primary substrate. […] After a short lag time (1 d), all the substrates, i.e. propane, dioxane, and TCE, were degraded synchronically. At the end of day 2, the initial 71.1, 20.2, and 2.15 mg/L of propane, dioxane, and TCE were degraded to 25.8, 11.3, and 1.59 mg/L, respectively. TCE was degraded to below the MDL of the GC-FID methods employed (i.e., 0.01 mg/L), and 85% of dioxane was removed from the simulated microcosm after 4 days incubation.

[3] = test system: Psuedonocardia dioxanivorans CB1190; conditions: previous studies; cited from earlier work
Azoarcus sp. DD4 [4] = experiment: Propane and dioxane degradation by DD4 with or without ATU; type: cell-based; conditions: propane as primary substrate; dioxane degradation thus prolonged
Description: Allylthiourea (ATU) was reported to inhibit the particulate MOs involved in nitrification and alkane degradation in various bacteria. To exploit the effects ofprm-deletion on the propane and dioxane degradation and further to distinguish the soluble versus particulate MO category the DD4 dioxane degrader belongs to, the wild-type and prm-deleted DD4 strains were cultured with and without the presence of ATU using propane as a primary substrate to cometabolize dioxane. Duplicate abiotic controls were prepared in parallel. The propane and dioxane depletion were monitored over time by GC analysis. Now referring to FIGS. 11a and 11b, prmADBC is only partially correlated with the propane degradation but not associated with the dioxane cometabolism.

Azoarcus sp. DD4 [5] = experiment: Inhibition of dioxane, 1,1-DCE and propane degradation by acetylene (DD4 resting cells); type: cell-based; conditions: resting cells pre-incubated with acetylene 10% headspace volume, 20 minutes
Description: Inhibition of dioxane, 1,1-DCE, and propane degradation by acetylene. Acetylene is an irreversible suicide substrate that inactivates bacterial monooxygenases (MOs). Prior S. and Dalton H, 1985. Acetylene as a suicide substrate and active site probe for methane monooxygenase from Methylococcus capsulatus (Bath). FEMS Microbiology Letters. 29, 105-109. […] After being washed with NMS three times, resting cells were pre-incubated with acetylene (10% headspace volume) for 20 minutes prior to the amendment of dioxane, 1,1-DCE, or propane. The effect of the inhibitor acetylene was studied by monitoring the depletion of dioxane, 1,1-DCE, and propane over time in the presence or absence of acetylene. Duplicate abiotic controls were prepared in parallel. The propane and dioxane depletion were monitored over time by GC analysis.

Azoarcus sp. DD4 [6] = conditions: propane as substrate
Description: DD4's adaptability to pH, salinity and temperature. To identify its optimum growth conditions, DD4 was cultured with propane as the substrate under different pHs, temperatures, and salinities. The pHs of NMS medium were adjusted to 4.0, 5.0, 6.0, 7.0, 8.0, 9.0 and 10.0 with appropriate amount of 1 M HCl or 1 M NaOH. The NMS mediums were cultured under 10° C., 15° C., 20° C., 25° C., 30° C., 35° C., and 40° C. The salinities of NMS medium were adjusted to 0%, 0.5%, 1.0%, 1.5%, 2.0%, 2.5%, 3.0%, and 3.5% (w/v) with NaCl. 6 mL of propane (equivalent to 6% of the head space volume) was injected into the sealed bottles in all these assays. DD4 was inoculated at the initial concentration of 0.05 measured as OD600 and cultured under 30° C., 150 rpm for 72 h while shaking. The optical density (OD) values of bacterial suspensions were determined with spectrophotometer under 600 nm.

For C1COCCO1 [dioxane, 1,4-dioxane], the “effect of presence on utilization of 1-propanol and proliferation of DD4” value (Azoarcus sp. DD4 [1]) was “did not inhibit”, the “effect on 1,1-DCE degradation by DD4 resting cells” value (Azoarcus sp. DD4 [2]) was “no inhibitory effects” and the “dioxane removed after 4 days incubation” value (Mycobacterium sp. DT1; initial 20.2 mg/L) was 85%.
With ClC=C(Cl)Cl [TCE, trichloroethene] the “effect of presence on degradation of dioxane or consumption of propane for growth” value (Mycobacterium sp. DT1; DT1, BSM, propane as primary substrate) was “no significant inhibition”.
In the case of C=C(Cl)Cl [1,1-DCE, 1,1-dichloroethylene], the “effect of exposure on dioxane degradation by CB1190” value [3] is listed as “significantly prohibit”, the “effect of presence on utilization of 1-propanol and proliferation of DD4” value (Azoarcus sp. DD4 [1]) is listed as “did not inhibit” and the “effect of presence on degradation of dioxane and consumption of propane for growth” value (Azoarcus sp. DD4 [1]; propane as primary substrate, NMS microcosm) is listed as “significantly inhibited”. The “effect of presence on dioxane degradation by DD4 resting cells” value (Azoarcus sp. DD4 [2]) was “greatly inhibited”.
For C=CCNC(N)=S [ATU, Allylthiourea], the “effect on propane consumption” value (Azoarcus sp. DD4 [4]) was “partially inhibit”.
In the case of C#C [acetylene], the “effect of exposure on degradation of propane, 1,1-DCE and dioxane” value (Azoarcus sp. DD4 [5]) is reported as “completely prohibited”.
For [Cl-].[Na+] [NaCl], the “optimal growth parameter, NaCl” value (Azoarcus sp. DD4 [6]; 72 h, OD600, w/v) was 0-1% and the “NaCl concentration under which DD4 could survive and maintain growth and cometabolic activity toward dioxane” value (Azoarcus sp. DD4 [6]; w/v) was 0.0-3.0%.
